Source: patent US20060069132A1, “Azolecarboxamide herbicides” (priority 2004, published 2006)

Columns and labels:
barnyardgrass [1] = assay: Test A pre-/postemergence herbicide test; assay type: in vivo, Echinochloa crus-galli
Method in brief: (§1)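 Plants are held in greenhouse about ten days after treatment, then compared with untreated controls and scored 0 (no effect) to 100 (complete control). Preemergence dosing is a directed soil spray on sown sandy loam; postemergence dosing is spray to runoff at 2–10 cm height.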

large crabgrass [2] = assay: Test A pre-/postemergence herbicide test; assay type: in vivo, Digitaria sanguinalis
Method in brief: as §1

giant foxtail [3] = assay: Test A pre-/postemergence herbicide test; assay type: in vivo, Setaria faberi
Method in brief: as §1

morningglory [4] = assay: Test A pre-/postemergence herbicide test; assay type: in vivo, Ipomoea spp.
Method in brief: as §1

redroot pigweed = assay: Test A pre-/postemergence herbicide test; assay type: in vivo, Amaranthus retroflexus
Method in brief: as §1

velvetleaf [5] = assay: Test A pre-/postemergence herbicide test; assay type: in vivo, Abutilon theophrasti
Method in brief: as §1

barnyardgrass [6] = assay: Test B pre-/postemergence herbicide test; assay type: in vivo, Echinochloa crus-galli; details: for Barnyardgrass plant response rating: postemergence, visual rating, scale 0 (no effect) to 100 (complete control)
Method in brief: (§2)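 Species tested were Echinochloa crus-galli, Ipomoea coccinea, Xanthium strumarium and Oryza sativa, treated both before emergence and at the 1- to 4-leaf stage; rice and barnyardgrass were also tested under flooding at 2 leaves. Greenhouse incubation lasted 13–15 days before visual 0–100 scoring.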

Surinam grass = assay: Test B pre-/postemergence herbicide test; assay type: in vivo, Urochloa decumbens; details: for Surinam Grass plant response rating: postemergence, visual rating, scale 0 (no effect) to 100 (complete control)
Method in brief: (§3)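 Greenhouse pot assay with simultaneous preemergence (treated seed) and postemergence (2–18 cm seedlings) applications of surfactant-containing, non-phytotoxic solvent formulations. Response scored visually 13–15 days later on a 0–100 scale, 100 meaning complete control.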

cocklebur = assay: Test B pre-/postemergence herbicide test; assay type: in vivo, Xanthium strumarium; details: postemergence, visual rating, scale 0 (no effect) to 100 (complete control)
Method in brief: as §2

corn = assay: Test B pre-/postemergence herbicide test; assay type: in vivo, Zea mays; details: for Corn plant response rating: postemergence, visual rating, scale 0 (no effect) to 100 (complete control)
Method in brief: as §3

large crabgrass [7] = assay: Test B pre-/postemergence herbicide test; assay type: in vivo, Digitaria sanguinalis; details: for Crabgrass, Large plant response rating: postemergence, visual rating, scale 0 (no effect) to 100 (complete control)
Method in brief: as §3

giant foxtail [8] = assay: Test B pre-/postemergence herbicide test; assay type: in vivo, Setaria faberi; details: for Foxtail, Giant plant response rating: postemergence, visual rating, scale 0 (no effect) to 100 (complete control)
Method in brief: as §3

lambsquarters = assay: Test B pre-/postemergence herbicide test; assay type: in vivo, Chenopodium album; details: for Lambsquarters plant response rating: postemergence, visual rating, scale 0 (no effect) to 100 (complete control)
Method in brief: as §3

morningglory [9] = assay: Test B pre-/postemergence herbicide test; assay type: in vivo, Ipomoea coccinea; details: for Morningglory plant response rating: postemergence, visual rating, scale 0 (no effect) to 100 (complete control)
Method in brief: as §2

pigweed = assay: Test B pre-/postemergence herbicide test; assay type: in vivo, Amaranthus retroflexus; details: for Pigweed plant response rating: postemergence, visual rating, scale 0 (no effect) to 100 (complete control)
Method in brief: as §3

rice [10] = assay: Test B pre-/postemergence herbicide test; assay type: in vivo, Oryza sativa; details: preemergence
Method in brief: as §2

velvetleaf [11] = assay: Test B pre-/postemergence herbicide test; assay type: in vivo, Abutilon theophrasti; details: for Velvetleaf plant response rating: postemergence, visual rating, scale 0 (no effect) to 100 (complete control)
Method in brief: as §3

blackgrass = assay: Test B postemergence herbicide test; assay type: in vivo, Alopecurus myosuroides; details: postemergence, visual rating, scale 0 (no effect) to 100 (complete control)
Method in brief: (§4)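 Plants grow to 1- to 4-leaf stage (2–18 cm) for postemergence spraying, or to 2-leaf stage for the paddy test. Formulated compound is applied. Greenhouse holding lasts 13–15 days. Response is scored visually relative to controls, 0 no effect to 100 complete control; a dash means no result.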

wheat = assay: Test B postemergence herbicide test; assay type: in vivo, Triticum aestivum; set-up: key to Wheat plant response rating: 0 = no effect, 100 = complete control; details: postemergence, visual rating, scale 0 (no effect) to 100 (complete control)
Method in brief: as §4

wild oat = assay: Test B postemergence herbicide test; assay type: in vivo, Avena fatua; details: postemergence, visual rating, scale 0 (no effect) to 100 (complete control)
Method in brief: as §4

rice [12] = assay: Test B flooded paddy test; assay type: in vivo, Oryza sativa; details: 1000 g ai/ha, visual rating, scale 0 to 100 (0 no effect, 100 complete control), 13 to 15 days
Method in brief: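 Greenhouse test; postemergence application to plants at 1–4 leaves (2–18 cm); paddy species at 2 leaves; evaluated visually vs controls at 13–15 days; scale 0–100 (100 = complete control).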

[13] = tested on: small flower umbrella sedge; assay: Test B flooded paddy test; assay type: in vivo, Cyperus difformis; details: 1000 g ai/ha, visual rating, scale 0 to 100 (0 no effect, 100 complete control), 13 to 15 days
Method in brief: as §4

ducksalad = assay: Test B flooded paddy test; assay type: in vivo, Heteranthera limosa; details: 1000 g ai/ha, visual rating, scale 0 to 100 (0 no effect, 100 complete control), 13 to 15 days
Method in brief: as §4

barnyardgrass [14] = assay: Test B flooded paddy test; assay type: in vivo, Echinochloa crus-galli; details: 1000 g ai/ha, visual rating, scale 0 to 100 (0 no effect, 100 complete control), 13 to 15 days
Method in brief: as §4

[15] = Postemergence, 500 g ai/ha, 0 to 100 scale, 0 no effect, 100 complete control
[16] = Postemergence, 2000 g ai/ha, 0 to 100 scale, 0 no effect, 100 complete control
[17] = Preemergence, 2000 g ai/ha, visual rating, 0 to 100 scale (0 no effect, 100 complete control)
[18] = preemergence, 500 g ai/ha, visual injury, 0 to 100 scale (0 no effect, 100 complete control)
[19] = 125 g ai/ha, 0 = no effect, 100 = complete control, preemergence
[20] = 500 g ai/ha, visual rating 0-100, 0 no effect, 100 complete control, preemergence

SMILES: CCn1nc(C(C)(C)C)cc1C(=O)Nc1nc(OC)cc(SCF)n1 [Compound 167]
- Barnyardgrass plant response rating (barnyardgrass [1]; [15]): 0
- Plant response rating, Barnyardgrass (barnyardgrass [1]; [16]): 0
- Barnyardgrass plant response rating (barnyardgrass [1]; [17]): 0
- Barnyardgrass plant response rating (barnyardgrass [1]; [18]): 0
- Crabgrass, Large plant response rating (large crabgrass [2]; [15]): 0
- Plant response rating, Crabgrass, Large (large crabgrass [2]; [16]): 5
- Crabgrass, Large plant response rating (large crabgrass [2]; [17]): 5
- Crabgrass, Large plant response rating (large crabgrass [2]; [18]): 0
- Foxtail, Giant plant response rating (giant foxtail [3]; [15]): 0
- Plant response rating, Foxtail, Giant (giant foxtail [3]; [16]): 0
- Foxtail, Giant plant response rating (giant foxtail [3]; [17]): 10
- Foxtail, Giant plant response rating (giant foxtail [3]; [18]): 0
- Morningglory plant response rating (morningglory [4]; [15]): 0
- Plant response rating, Morningglory (morningglory [4]; [16]): 10
- Morningglory plant response rating (morningglory [4]; [17]): 5
- Morningglory plant response rating (morningglory [4]; [18]): 0
- Pigweed plant response rating (redroot pigweed; [15]): 0
- Plant response rating, Pigweed (redroot pigweed; [16]): 0
- Pigweed plant response rating (redroot pigweed; [17]): 50
- Pigweed plant response rating (redroot pigweed; [18]): 0
- Velvetleaf plant response rating (velvetleaf [5]; [15]): 10
- Plant response rating, Velvetleaf (velvetleaf [5]; [16]): 20
- Velvetleaf plant response rating (velvetleaf [5]; [17]): 10
- Velvetleaf plant response rating (velvetleaf [5]; [18]): 5
- Barnyardgrass plant response rating (0 to 100 scale) (barnyardgrass [6]; [19]): 0
- Plant response rating, Barnyardgrass (barnyardgrass [6]; [20]): 0
- Barnyardgrass plant response rating (barnyardgrass [6]; 125 g ai/ha): 0
- Barnyardgrass plant response rating (barnyardgrass [6]; 500 g ai/ha): 0
- Surinam Grass plant response rating (0 to 100 scale) (Surinam grass; [19]): 0
- Plant response rating, Surinam Grass (Surinam grass; [20]): 0
- Surinam Grass plant response rating (Surinam grass; 125 g ai/ha): 0
- Surinam Grass plant response rating (Surinam grass; 500 g ai/ha): 0
- Cocklebur plant response rating (cocklebur; 125 g ai/ha): 0
- Cocklebur plant response rating (cocklebur; 500 g ai/ha): 0
- Plant response rating, Corn (corn; [20]): 0
- Corn plant response rating (corn; 125 g ai/ha): 0
- Corn plant response rating (corn; 500 g ai/ha): 0
- Crabgrass, Large plant response rating (0 to 100 scale) (large crabgrass [7]; [19]): 0
- Plant response rating, Crabgrass, Large (large crabgrass [7]; [20]): 0
- Crabgrass, Large plant response rating (large crabgrass [7]; 125 g ai/ha): 0
- Crabgrass, Large plant response rating (large crabgrass [7]; 500 g ai/ha): 0
- Foxtail, Giant plant response rating (0 to 100 scale) (giant foxtail [8]; [19]): 0
- Plant response rating, Foxtail, Giant (giant foxtail [8]; [20]): 0
- Foxtail, Giant plant response rating (giant foxtail [8]; 125 g ai/ha): 0
- Foxtail, Giant plant response rating (giant foxtail [8]; 500 g ai/ha): 0
- Lambsquarters plant response rating (0 to 100 scale) (lambsquarters; [19]): 0
- Plant response rating, Lambsquarters (lambsquarters; [20]): 0
- Lambsquarters plant response rating (lambsquarters; 125 g ai/ha): 0
- Lambsquarters plant response rating (lambsquarters; 500 g ai/ha): 0
- Morningglory plant response rating (0 to 100 scale) (morningglory [9]; [19]): 0
- Plant response rating, Morningglory (morningglory [9]; [20]): 0
- Morningglory plant response rating (morningglory [9]; 125 g ai/ha): 0
- Morningglory plant response rating (morningglory [9]; 500 g ai/ha): 0
- Pigweed plant response rating (0 to 100 scale) (pigweed; [19]): 0
- Plant response rating, Pigweed (pigweed; [20]): 0
- Pigweed plant response rating (pigweed; 125 g ai/ha): 0
- Pigweed plant response rating (pigweed; 500 g ai/ha): 0
- Rice plant response rating (0 to 100 scale) (rice [10]; 125 g ai/ha, 0 = no effect, 100 = complete control): 0
- Plant response rating, Rice (rice [10]; 500 g ai/ha, visual rating 0-100, 0 no effect, 100 complete control): 0
- Velvetleaf plant response rating (0 to 100 scale) (velvetleaf [11]; [19]): 0
- Plant response rating, Velvetleaf (velvetleaf [11]; [20]): 0
- Velvetleaf plant response rating (velvetleaf [11]; 125 g ai/ha): 0
- Velvetleaf plant response rating (velvetleaf [11]; 500 g ai/ha): 0
- Blackgrass plant response rating (blackgrass; 125 g ai/ha): 0
- Blackgrass plant response rating (blackgrass; 500 g ai/ha): 0
- Wheat plant response rating (wheat; 125 g ai/ha): 0
- Wheat plant response rating (wheat; 500 g ai/ha): 0
- Oat, Wild plant response rating (wild oat; 125 g ai/ha): 0
- Oat, Wild plant response rating (wild oat; 500 g ai/ha): 0
- Rice plant response rating (rice [12]): 0
- Sedge, Umbrella plant response rating [13]: 0
- Ducksalad plant response rating (ducksalad): 0
- Barnyardgrass plant response rating (barnyardgrass [14]): 0
